# Legend:
# in vitro = conditions: for fold increase in half-life vs Cit-Val: 2 μM; for half-life at 2 μM: plasma
# Experimental: Pooled frozen plasma was thawed in a water bath at 37° C. Plasma was centrifuged at 4000 rpm for 5 min and the clots were removed if any. The pH will be adjusted to 7.4±0.1 if required. 1 mM stock solution was prepared with DMSO. Propantheline (positive control) was prepared by making a 100 μM working solution by diluting 5 μL of the stock solution (10 mM) with 495 μL ultra pure water. 100 μM working solutions of test compounds were made up by diluting 10 μL of the stock solution (1 mM) with 90 μL DMSO. 98 μL of blank plasma was spiked with 2 μL of dosing solution (100 μM) to achieve 2 μM of the final concentration in duplicate and samples were incubated at 37° C. in a water bath. […] An aliquot of supernatant (150 μL) was transferred from each well before submitting for LC-MS/MS analysis.
# The % remaining test compound after incubation in plasma was calculated using following equation: Remaining=100×(PAR at appointed incubation time/PAR at T0 time)
# where PAR is the peak area ratio of analyte versus internal standard (IS).
# The half-life (T½) was calculated from a log linear plot of concentration versus time.
# Cathepsin B = Cathepsin B (Homo sapiens, UniProt P07858); assay: Cathepsin B (CatB) cleavage assay; type: biochemical; conditions: for % Parent remaining after incubation with CatB, T = 1 h / % Parent remaining after incubation with CatB, T = 4 h / % Parent remaining after incubation with CatB, T = 24 h: norfloxacin linker compounds
# Experimental: 15 μL of test compound solution (2 mM in DMSO) was added to the incubation plate in duplicate. 30 μL of Cathepsin B stock solution (16 μM) was pre-activated with 1500 μL activation buffer for 10 min at room temperature. The Cathepsin B solution was diluted in 13.17 mL water, then 735 μL activatived enzyme mixture was added to the incubation plate. The mixture was incubated at 37° C. in a waterbath. […] The samples were mixed and centrifuged at 4000 rpm for 20 min. 50 μL of supernatant was taken into a new plate containing 150 μL ultra-pure water and the samples mixed thoroughly before submitting to LC-MS/MS analysis.
SMILES,"fold increase in half-life vs Cit-Val (in vitro; mouse, pH 7.4)","half-life at 2 μM (in vitro; mouse, pH 7.4)","% Parent remaining after incubation with CatB, T = 1 h (Cathepsin B; 1 h)","% Parent remaining after incubation with CatB, T = 4 h (Cathepsin B; 4 h)","% Parent remaining after incubation with CatB, T = 24 h (Cathepsin B; 24 h)","half-life at 2 μM (in vitro; pH 7.4, Mouse plasma t1/2 (EDTA), BTCs, EDTA anticoagulant)","% Parent remaining after incubation with CatB, 0 h (Cathepsin B; BTCs, 0 h)","% Parent remaining after incubation with CatB, 1 h (Cathepsin B; BTCs, 1 h)","% Parent remaining after incubation with CatB, 2 h (Cathepsin B; BTCs, 2 h)","% Parent remaining after incubation with CatB, 4 h (Cathepsin B; BTCs, 4 h)","% Parent remaining after incubation with CatB, 6 h (Cathepsin B; BTCs, 6 h)","% Parent remaining after incubation with CatB, 24 h (Cathepsin B; BTCs, 24 h)","half-life at 40 μM (Cathepsin B; BTCs, read-out: CatB t1/2 (converted))"
CCn1cc(C(=O)O)c(=O)c2cc(F)c(N3CCN(C(=O)OCc4ccc(NC(=O)[C@H](CCNC(=N)N)NC(=O)[C@@H](NC(=O)CCCC(=O)N(C)C)C(C)C)cc4)CC3)cc21 [BCY9423],6.0 fold,2.4 h,0.6%,0%,0%,–,–,–,–,–,–,–,–
"CCn1cc(C(=O)O)c(=O)c2cc(F)c(N3CCN(C(=O)OCc4ccc(NC(=O)[C@H](CCCNC(N)=O)NC(=O)[C@@H](NC(=O)CCCC(=O)N(C)C)C(C)C)cc4)CC3)cc21 [BCY9422, reference compound]",1.0 fold,0.4 h,3%,0%,0%,–,–,–,–,–,–,–,–
"CC[C@H](C)[C@@H]([C@@H](CC(=O)N1CCC[C@H]1[C@H](OC)[C@@H](C)C(=O)N[C@H](C)[C@@H](O)c1ccccc1)OC)N(C)C(=O)[C@@H](NC(=O)[C@H](C(C)C)N(C)C(=O)OCc1ccc(NC(=O)[C@H](CCN)NC(=O)C2(NC(=O)[C@H](CCC(=O)O)NC(=O)Cn3cc(CCC(=O)NCCC(=O)N(C)CC(=O)N(C)CC(=O)N(C)CC(=O)N(C)CC(=O)N(C)CC(=O)N(C)CC(=O)N(C)CC(=O)N(C)CC(=O)N(C)CC(=O)N(C)CC(=O)N[C@@H](C)C(=O)N[C@H]4CN(C)Cc5cc6cc(c5)CN(C)C[C@@H](C(N)=O)NC(=O)[C@H](C(C)(C)C)NC(=O)[C@H](CC(=O)O)NC(=O)[C@H](Cc5ccc(O)cc5)NC(=O)[C@H](Cc5ccccc5)NC(=O)[C@H](CC(=O)O)NC(=O)[C@H](CCC(=O)O)NC(=O)[C@H](CSC6)NC(=O)[C@@H](C)NC(=O)[C@H](Cc5cccc6ccccc56)NC(=O)[C@H](CCC(=O)O)NC(=O)[C@H](CC(N)=O)NC(=O)[C@@H](C)NC4=O)nn3)CCC2)cc1)C(C)C [BCY10988, MMAE-PAB-(Dab-cBu-Glu)-BCY3900]",–,–,–,–,–,> 57.8 h,100%,109.88%,119%,110%,105%,111%,> 57.8 h

# Reference: US12540161B2, “Linkers” (BicycleTx Limited, priority 2020, dated 2026)
